{
  "source": "patent US12128035B2",
  "about": "“Activating pyruvate kinase R” (Novo Nordisk Health Care AG, priority 2021, dated 2024)",
  "key": {"[1]": {"experiment": "Phase 1: safety (adverse events) in SCD patients", "assay_type": "in vivo, human", "experimental": "In the SD cohort, 7 pts (2 males, 5 females, all HbSS) received 700 mg Compound 1 (n=5) or placebo (n=2).\nAll SCD patients who received a single 700 mg dose of Compound 1 or placebo were monitored for adverse events for 7 days. The incidence of treatment emergent adverse events (TEAEs) in SCD patients receiving Compound 1 (700 mg) or placebo are reported in Table 23. Six TEAEs were reported in 4 patients; all TEAEs were grade 1 and transient. Specifically, six TEAEs were reported in 4 of 7 (57%) patients, including 3 TEAEs (arthralgia, headache, palpitations) in 2 of 5 (40%) pts receiving Compound 1 and 3 TEAEs (back pain, myalgia, pruritis) in 2 of 2 (100%) pts receiving placebo; all TEAEs were grade 1 and transient. […] One possibly related TEAE (palpitations) occurred about 8 hours post dose. No other symptoms were observed, and the palpitations resolved in <1 minute. […] The single 700 mg dose of Compound 1 was considered tolerable, and the first multiple dose SCD cohort was initiated.\nBased on data from the MAD1 (300 mg once daily for 14 days), Compound 1 is well-tolerated in patients with SCD. In all, eighteen TEAEs were reported in 7 of 9 patients in the MAD1 (300 mg once daily) cohort (N=9). These included (a) eight Grade 1 TEAEs, including 3 patients c/o headache, 1 each of nausea, constipation, somnolence, increased LDH and increased AST, of which two AEs considered to be possibly related to study treatment were reported by one patient each (1 AE of headache and 1 AE of nausea); (b) six Grade 2 TEAEs, including 3 uncomplicated sickle pain events (in 2 patients), 1 patient with N/V and 1 increased reticulocytes, of which no AEs were considered related to study treatment, all AEs of pain events were considered unrelated and consistent with each patient's SCD pain history, and all AEs were treated with patient's standard home pain medications (no SAE/no hospitalization); and (c) one Grade 4 TEAE of elevated creatine kinase, unrelated to study treatment. Non-treatment-related AEs were consistent with events experienced in this patient population. No treatment-related serious AEs were reported."}, "[2]": {"tested_on": "H295R adreno-cortical carcinoma cell line", "experiment": "Steroid modulation screen in vitro", "assay_type": "cell-based", "settings": "tested at 200 to 0.0002 μM; only at top concentration", "experimental": "To assess potential effects on steroidogenesis, Compound 1 was screened for steroid modulation in vitro using the H295R adreno-cortical carcinoma cell line (at 200 to 0.0002 μM) and in an assay to monitor cell viability (MTT Kit). Compound 1 indicated steroid modulation potential (% over vehicle) only at 200 μM, the top concentration tested, with 100% cellular viability at concentrations ≤20 μM (90% viability at 200 μM)."}, "[3]": {"tested_on": "panels of receptors, enzymes, ion channels, and kinases", "experiment": "Preclinical safety: arrhythmia risk, mutagenicity, nonspecific binding panels", "settings": "in vitro panels"}},
  "data": [
    {"smiles": "O=C([C@H](CO)c1ccccc1)N1CC2=C(C1)CN(S(=O)(=O)c1cnc3c(c1)OCCO3)C2", "note": "(single isomer, unassigned) [Compound 1]", "values": [
      {"measurement": "Any TEAE, n (%)", "setting": "[1]; SCD 300 mg × 14 days (n = 7)", "result": "6 (86%) n (%)"},
      {"measurement": "Any serious adverse event (SAE), n (%)", "setting": "[1]; SCD 300 mg × 14 days (n = 7)", "result": "0 n (%)"},
      {"measurement": "Related to study drug, n (%)", "setting": "[1]; SCD 300 mg × 14 days (n = 7)", "result": "2 (29%) n (%)"},
      {"measurement": "tolerability", "setting": "[1]; SCD 400 mg QD, 84 days (12 weeks), open-label", "result": "well-tolerated"},
      {"measurement": "serious adverse events / TEAEs leading to withdrawal", "setting": "[1]; SCD SD cohort", "result": "No serious adverse events (SAEs) or TEAEs leading to pt withdrawal were reported"},
      {"measurement": "Any TEAE, n (%)", "setting": "[1]; SCD single 700 mg (N = 5)", "result": "2 (40) n (%)"},
      {"measurement": "Related to study drug, n (%)", "setting": "[1]; SCD single 700 mg (N = 5)", "result": "1 (20) n (%)"},
      {"measurement": "concentration indicating steroid modulation potential (% over vehicle)", "setting": "[2]", "result": 200, "unit": "µM"},
      {"measurement": "preclinical evidence of arrhythmia risk, mutagenicity, nonspecific binding", "setting": "[3]", "result": "has not demonstrated any preclinical evidence of arrhythmia risk, mutagenicity, or nonspecific binding activity"}
    ]}
  ]
}
